From patent publication US10980754B2, “Anti-fungal compounds” (SAINT LOUIS UNIVERSITY, priority 2016, dated 2021)
Values after ≈ are worked out from the molar mass of the structure shown. “Also recorded” adds a separate entry of the source.

Legend:
[1] = tested on: C. neoformans var grubii, KN99; experiment: Inhibition of C. neoformans growth, limiting dilution assay (MIC); format: cell-based; conditions: for MIC80: KN99α, minimal concentration inhibiting 80% of growth relative to vehicle; for activity against C. neoformans (in words): MIC assay
Description: Strains and media. All inhibition assays were performed with C. neoformans var grubii, KN99 (serotype A, MATα; kindly provided by Jennifer Lodge). Two clinical strains of C. neoformans var grubii, serotype A, were kindly provided by Tamara Doering and Andre Spec. […] Each assay was done in triplicate and all values are the average of two or more independent assays. The data are presented as the average cell density as a percent of DMSO-only treated cells. […] However, these conditions are unlike conditions encountered by C. neoformans in mammalian infections, where nutrients are limited, and the pH and temperature are higher than in YPD media. The cryptococcal stress response to low glucose and high pH and temperature may alter its susceptibility to the inhibitors. It is also possible that the enzymes targeted by the inhibitors may render the cell temperature sensitive when inhibited. To better mimic growth in mammals, growth was tested without shaking in nutrient-limited media at 35° C. […] However, as the nutrient-limited media and higher temperature is more similar to mammalian cell growth conditions, these conditions were used for all further assays. […] All values were measured at least two times in independent experiments and the average MIC is reported.

[2] = Cytotoxicity in hepatoma cells (MTS); conditions: human, HepDES19 cells
Description: HepDES19 cells (1.0×10^4 cells per well) were seeded in 96-well plates and incubated in DMEM with 10% fetal bovine serum (FBS) plus 1% penicillin and streptomycin, 1% nonessential amino acids, and 1% glutamine. The compounds were diluted in the medium at concentrations ranging from 0.78 to 100 μM plus 1% DMSO and added to the cells 48 hours after plating, with each concentration tested in triplicate. Cells were incubated with the compound for 72 hours and cytotoxicity was measured using a mitochondrial metabolic assay with MTS (Promega). The data were transformed to log[inhibitor] and fit to a 4-variable slope curve using GraphPad Prism (v6, www.graphpad.com).
Three days later, the MTS reagent was added for 90 minutes prior to terminating the incubation period and reading the OD480.

[3] = Cryptococcus neoformans, YNB-02+1% DMSO, 35° C., 48 hours
[4] = CC50, HepDES19 cells, 72 hours, MTS
[5] = Cryptococcus neoformans, Table 3, similar methods to Table 2
[6] = CC50, Table 3, similar methods to Table 2

Compound	MIC80 [1, 3] [µM]	CC50 at 72 h [2, 4] [µM]	further results
CC(C)c1ccc(O)c(=O)cc1 [Compound 48, γ-thujaplicin]	8 (≈ 1.31 µg/mL)	45	
CC(C)=CCc1ccc(=O)c(O)cc1C(C)C [Compound 49, Nootkatin]	18 (≈ 4.18 µg/mL)	18.5	
O=C(Oc1cccccc1=O)c1ccc([N+](=O)[O-])cc1 [Compound 51, tropolone p-nitrobenzoate]	24 (≈ 6.51 µg/mL)	> 100	
O=C(Nc1ccc(O)c(=O)cc1)c1ccccc1 [Compound 52]	50 (≈ 12.1 µg/mL)	> 100	
O=c1cccccc1O [Compound 53, Tropolone]	24 (≈ 2.93 µg/mL)	100	MIC [1, 3]: 24 µM (≈ 2.93 µg/mL)
CC(=O)NC(CCc1ccc(Cl)c(Cl)c1)c1cccc(O)c(=O)c1 (stereo not drawn) [Compound 55]	6 (≈ 2.2 µg/mL)	4.3	CC50 at 72 h ([2]; CC50, HepDES19, MTS): 4 µM
C=C(C)C1CCc2c(c(C)cc(O)c(=O)c2O)C1 (stereo not drawn) [Compound 56, Manicol]	50 (≈ 12.3 µg/mL)	27	
O=c1cccccc1Cl [Compound 57, 2-chlorotropone]			MIC80 ([1]; YNB-02+1% DMSO, 35° C., 48 hours): 50 µM (≈ 7.03 µg/mL)
Cc1ccc(C(=O)Nc2cccccc2=O)cc1 [Compound 60]	50 (≈ 12 µg/mL)	> 100	
Cc1ccc(S(=O)(=O)Oc2cccccc2=O)cc1 [Compound 61]	41 (≈ 11.3 µg/mL)	30.5	CC50 at 72 h ([2]; CC50, HepDES19, MTS): 30.5 µM
O=C(Oc1cccccc1=O)c1ccc(Cl)cc1 [Compound 63]	17 (≈ 4.43 µg/mL)	100	
COC(=O)c1c(C)cc(O)c(=O)c(O)c1C(=O)OC [Compound 106]	41 (≈ 11 µg/mL)	24.5	
COC(=O)c1c(CCl)cc(O)c(=O)c(O)c1C(=O)OC [Compound 107]	50 (≈ 15.1 µg/mL)	85.5	
COCc1cc(O)c(=O)c(O)c(C(=O)OC)c1C(=O)OC [Compound 108]	50 (≈ 14.9 µg/mL)	90.5	
CC(=O)c1cc(O)c(=O)c(O)cc1C [Compound 110]	50 (≈ 9.71 µg/mL)	19	MIC [1, 3]: ≥ 50 µM
Cc1cc(O)c(=O)c(O)cc1C(=O)c1ccccc1 [Compound 111]	36 (≈ 9.23 µg/mL)	26.3	
Cc1cc(O)c(=O)c(O)cc1-c1ccc([N+](=O)[O-])cc1 [Compound 112]	49 (≈ 13.4 µg/mL)	74	
Cc1cc(O)c(=O)c(O)cc1-c1ccccc1 [Compound 113]	24 (≈ 5.48 µg/mL)	37.5	
Cc1cc(O)c(=O)c(O)cc1-c1ccc(Br)cc1 [Compound 114]	11 (≈ 3.38 µg/mL)	18.6	
Cc1cc(O)c(=O)c(O)cc1C(=O)c1ccc(-c2ccccc2)cc1 [Compound 118]	18 (≈ 5.98 µg/mL)	17.5	
Cc1cc(O)c(=O)c(O)cc1C(=O)C1CCCCC1 [Compound 120]	12 (≈ 3.15 µg/mL)	21.5	
Cc1cc(O)c(=O)c(O)cc1C(=O)C(C)C [Compound 143]	50 (≈ 11.1 µg/mL)	> 100	MIC [1, 3]: ≥ 50 µM

Compound	MIC80 [1, 3] [µM]	CC50 at 72 h [2, 4] [µM]	further results
Cc1cc(O)c(=O)c(O)cc1-c1ccc(Cl)cc1 [Compound 144]	50 (≈ 13.1 µg/mL)		
Cc1cc(O)c(=O)c(O)cc1-c1ccc(C(F)(F)F)cc1 [Compound 145]	15 (≈ 4.44 µg/mL)	11	
Cc1cc(O)c(=O)c(O)cc1-c1cccc2ccccc12 [Compound 146]	20 (≈ 5.57 µg/mL)	20	
O=c1c(O)ccccc1O [Compound 172, 7-Hydroxytropolone]	24 (≈ 3.31 µg/mL)	100	MIC [1, 3]: 24 µM (≈ 3.31 µg/mL); activity against C. neoformans (in words) [1]: little activity
Cc1ccc(O)c(=O)c(O)c1 [Compound 210]	15 (≈ 2.28 µg/mL)	71	MIC [1, 3]: ≤ 15 µM
O=c1c(O)ccc(-c2ccccc2)cc1O [Compound 262, 2,7-dihydroxy-4-phenylcyclohepta-2,4,6-trien-1-one]	18 (≈ 3.86 µg/mL)	96	
O=c1c(O)ccc(-c2ccc(-c3ccccc3)cc2)cc1O [Compound 264, 4-([1,1′-biphenyl]-4-yl)-2,7-dihydroxycyclohepta-2,4,6-trien-1-one]	35 (≈ 10.2 µg/mL)	28	
O=c1c(O)ccc(-c2ccco2)cc1O [Compound 265, 4-(furan-2-yl)-2,7-dihydroxycyclohepta-2,4,6-trien-1-one]			MIC [1, 3]: ≤ 15 µM
COC(=O)c1cc(O)c(=O)c(OC)cc1C [Compound 273]	50 (≈ 11.2 µg/mL)	100	activity against C. neoformans (in words) [1]: no activity
COC(=O)c1c2c(cc(O)c(=O)c1O)COC2=O [Compound 280, Methyl 5,7-dihydroxy-3,6-dioxo-3,6-dihydro-1H-cyclohepta[c]furan-4-carboxylate]	50 (≈ 12.6 µg/mL)	66	
Cc1ccccc1C(=O)Oc1cccccc1=O [Compound 281]	50 (≈ 12 µg/mL)	100	
Cc1cc(O)c(=O)c(O)cc1C(=O)c1cccs1 [Compound 308, 4-(thiopene-2-carbonyl)-2,7-dihydroxy-5-methylcyclohepta-2,4,6-trien-1-one]	11 (≈ 2.89 µg/mL)	24	
Cc1cc(O)c(=O)c(O)cc1C(=O)c1ccco1 [Compound 309, 4-(furan-2-carbonyl)-2,7-dihydroxy-5-methylcyclohepta-2,4,6-trien-1-one]	24 (≈ 5.91 µg/mL)	35	
Cc1cc(O)c(=O)c(O)cc1C(=O)C1CC1 [Compound 310, 4-(cyclopropanecarbonyl)-2,7-dihydroxy-5-methylcyclohepta-2,4,6-trien-1-one]	11 (≈ 2.42 µg/mL)	35	
Cc1cc(O)c(=O)c(O)cc1C(=O)c1ccccc1O [Compound 311, 4-(2-hydroxybenzoyl)-2,7-dihydroxy-5-methylcyclohepta-2,4,6-trien-1-one]	15 (≈ 4.08 µg/mL)	20	
COc1ccc(C(=O)c2cc(O)c(=O)c(O)cc2C)cc1 [Compound 312, 4-(4-methoxybenzoyl)-2,7-dihydroxy-5-methylcyclohepta-2,4,6-trien-1-one]	18 (≈ 5.15 µg/mL)	18	
Cc1cc(O)c(=O)c(O)cc1C(=O)c1ccc([N+](=O)[O-])cc1 [Compound 313, 2,7-dihydroxy-4-methyl-5-(4-nitrobenzoyl)cyclohepta-2,4,6-trien-1-one]	24 (≈ 7.23 µg/mL)	46	
Cc1cc(O)c(=O)c(O)cc1C(=O)c1ccc2ccccc2c1 [Compound 315, 4-(2-naphthoyl)-2,7-dihydroxy-5-methylcyclohepta-2,4,6-trien-1-one]	24 (≈ 7.35 µg/mL)	17	
COc1cc(C)c(C(=O)c2ccccc2)c(C(=O)c2ccccc2)c(O)c1=O [Compound 317, (7-hydroxy-5-methoxy-3-methyl-6-oxocyclohepta-2,4,7-triene-1,2-diyl) bis (phenyl methanone)]	50 (≈ 18.7 µg/mL)	> 100	activity against C. neoformans (in words) [1]: little activity; also recorded: no activity
Cc1cc(O)c(=O)c(O)cc1C(=O)O [Compound 319, 4,6-dihydroxy-2-methyl-5-oxocyclohepta-1,3,6-triene-1-carboxylic Acid]	50 (≈ 9.81 µg/mL)	> 100	MIC [1, 3]: ≥ 50 µM
O=C(Sc1cccccc1=O)c1ccccc1 [Compound 364]			MIC [1, 5]: 0.2 µM (≈ 0.0485 µg/mL); CC50 at 72 h [2, 6]: 46 µM
Cc1ccc(CSc2cccccc2=O)cc1 [Compound 365]			MIC [1, 5]: > 50 µM; CC50 at 72 h [2, 6]: > 100 µM
